Experiments:
IRI mice (male SD mice) = experiment: Cerebral ischemia-reperfusion injury (IRI) model, TTC dyeing; format: in vivo; conditions: 2 h ischemia, 24 h reperfusion; caudal vein injection 5 mg/kg (Edaravone 6 mg/kg) after 30 min ischemia
Procedure: Experimental animals: healthy male mice, weighing 280-300 grams, purchased from Shanghai SLAC Laboratory Animal Co. Ltd, with quality certificate No. (SCXK (Shanghai) 2007-0005), and kept in clean animal houses.
Establishment of a mouse cerebral ischemia model of mice and experimental method: 280-300 grams of male […] mice were selected for experiments. The male SD mice were subjected to fasting without water deprivation for 12 h before operation followed by weighing, numbering and random grouping. The male SD mice were anesthetized by intraperitoneal injection of 10 wt. % chloral hydrate at a dosage of 0.3 mL/100 g. After the male SD mice had no pain reflexes, they were subjected to neck skin preparation followed by being fixed on a dissecting table in supine position. After neck skins were disinfected with sterilized cotton balls, about 1 cm of the neck skins were cut in mid-cervical to expose subcutaneous tissues, and subcutaneous fat and the fascia were bluntly plucked with curved tweezers to expose neck muscle groups. The common carotid arteries and their upwardly internal and external carotid branches were visualized by opening the digastric muscle. The external, internal, and common carotid arteries were carefully dissected, and a thin wire was threaded under each of the three arteries, and homemade plastic spacers were placed under the common carotid arteries. The external carotid arteries and proximal ends of the common carotid arteries were ligated. After the internal common carotid arteries were clamped by arterial clips, the common carotid arteries were stuck into with homemade curved hooks followed by picking up and leading in monofilaments. The spacers were removed, and the monofilaments were gently pushed into the internal common carotid arteries and craniums. […] At this time, blood supplies of the middle cerebral arteries from the anterior cerebral arteries were blocked. Thin wires under the internal carotid arteries were ligated to secure the monofilaments to prevent the monofilaments from retreating. Excess thin wires were cut, penicillin was applied to wounds to prevent infection. The male SD mice were sutured and placed under a warm lamp to keep warm. Timing was performed when blood flows of the middle cerebral arteries were blocked by the monofilaments. After 2 hours, the monofilaments were gently pulled out and the black marks were seen, then reperfusion can be achieved.
Triphenyl tetrazolium chloride (TTC) dyeing: After being injured by 2 h cerebral ischemia and 24 h reperfusion, the male SD mice were anesthetized with 0.3 mL/100 g dosage of 10 wt. % of chloral hydrate by intraperitoneal injection and subjected to abdominal aorta bleeding to reduce influence of blood in brains. Then whole heads of the male SD mice were removed immediately after decapitating, and washed with normal saline followed by being promptly put into a −20° C. refrigerator to freeze for 20 min. Frozen brains were collected and subjected to coronal sections, each 2 mm of thickness, by a blade. Then the coronal sections were subjected to dark dyeing in a 2 wt. % of TTC solution for 20 min and fixing in a 4 wt. % of polyformaldehyde solution for 6 h followed by photographing. Then, Photoshop software was used to define area and calculate, and a formula was represented as a percentage of cerebral ischemic area=a total area of white area/a total area of ischemic hemisphere×100%.
Drug preparation and experimental grouping: Edaravone was used as a positive control drug, and an Edaravone injection was 30 mg/20 mL. A single dosage for each of the male SD mice was 0.4 mL/100 g, that is, 6 mg/kg. The cyclic dinucleotide metal compounds prepared in Examples 1-5 were prepared into […] injection drugs with the normal saline. Each of the male SD mice was subjected to caudal vein injection with 0.4 mL/100 g dosage of drugs, that is, 5 mg/kg. The male SD mice were divided into 8 groups (10 mice in each group). […]

[1] = system: mouse colorectal cancer cell line CT26
Procedure: Experimental animals: BALB/c ordinary mice, male, weighing 20-22 grams, 7-8 weeks old, at SPF level, purchased from Shanghai SLAC Laboratory Animal Co. Ltd.
Tumour cell line herein was the mouse colorectal cancer cell line CT26 purchased from Chinese Academy of Sciences Cell Bank.
Establishment and intervention of tumor model mice: cells were subjected to culture and subculture, collected in the logarithmic phase and prepared as 1.0×10^7/mL of cell suspension. 0.2 mL of the cell suspension was injected armpits of forelegs of the mice (with a cell number of 2.0×10^6), and tumor transplantation was successful in about 7 days. The mice were randomly divided into 5 groups (10 mice in each group). […] The mice were subjected to administration by intraperitoneal injection with the volume of 200 μL per mice once every 2 days for 20 days. After 20 days, the mice were weighed and their blood was collected. Then the mice were killed, and the tumor were weighed. The formula of inhibitory rate of tumor was represented as inhibitory rate of tumor=[1-average tumor weight of experimental group/average tumor weight of the negative control group]×100%.

[2] = oxaliplatin 5 mg/kg alone or + 10 mg/kg compound, intraperitoneal once every 2 days, 20 days
[3] = peripheral blood after 20 days administration
[4] = serum after 20 days administration

Row | Structure (SMILES) | Average value of percentage of cerebral ischemic area (IRI mice (male SD mice)) [%] | Inhibitory rate (of tumor) ([1]; CT26, oxaliplatin 5 mg/kg alone or + 10 mg/kg compound, 20 days) [%] | Survival rate [1, 2] [%] | Weight loss [1, 2] [%] | Hemoglobin [1, 3] [g/L] | Platelets [1, 3] | Red blood cells [1, 3] | White blood cells [1, 3] | ALT [1, 4] [U/L] | Creatinine [1, 4] [µmol/L]
1 | CC1=NN(c2ccccc2)C(=O)C1 [Edaravone, reference compound] | 28.97 | – | – | – | – | – | – | – | – | –
2 | O=C1[O][Pt]2([NH][C@@H]3CCCC[C@H]3[NH]2)[O]C1=O [oxaliplatin] | – | 78 | 50 | 40 | 88 ± 9 | 368 ± 56 × 10^3/μL | 4.51 ± 0.65 × 10^6/μL | 3.87 ± 0.08 × 10^3/μL | 118.25 ± 7.84 | 80.33 ± 4.65
